# Measured values as given in patent US12692254B2, “Benzimidazole inhibitors of PAD enzymes” (BRISTOL-MYERS SQUIBB COMPANY, priority 2018, dated 2026).
# Target: human PAD4 (hPAD4) (Homo sapiens, UniProt Q9UM07)
# Assay: RFMS human PAD4 functional assay (rapid-fire mass spectrum)
# Assay type: biochemical
# Details: 5 nM hPAD4 enzyme, 250 μM BAEE, 50 μM Calcium; 30 min preincubation, 90 min reaction at 37° C.
# How it was run: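 PAD4 (10 nM) preincubated 30 min with compound (top final 50 μM), then BAEE substrate added in pH 7.5 HEPES buffer with DTT, 50 μM calcium, TPEN; 90 min at 37° C. After TCA quench, citrulline derivatized with phenyl glyoxal (4 mM final, 30 min, 37° C) and quantified by RapidFire MS against internal standard.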
# Sequence of human PAD4 (hPAD4) (Q9UM07 whole entry): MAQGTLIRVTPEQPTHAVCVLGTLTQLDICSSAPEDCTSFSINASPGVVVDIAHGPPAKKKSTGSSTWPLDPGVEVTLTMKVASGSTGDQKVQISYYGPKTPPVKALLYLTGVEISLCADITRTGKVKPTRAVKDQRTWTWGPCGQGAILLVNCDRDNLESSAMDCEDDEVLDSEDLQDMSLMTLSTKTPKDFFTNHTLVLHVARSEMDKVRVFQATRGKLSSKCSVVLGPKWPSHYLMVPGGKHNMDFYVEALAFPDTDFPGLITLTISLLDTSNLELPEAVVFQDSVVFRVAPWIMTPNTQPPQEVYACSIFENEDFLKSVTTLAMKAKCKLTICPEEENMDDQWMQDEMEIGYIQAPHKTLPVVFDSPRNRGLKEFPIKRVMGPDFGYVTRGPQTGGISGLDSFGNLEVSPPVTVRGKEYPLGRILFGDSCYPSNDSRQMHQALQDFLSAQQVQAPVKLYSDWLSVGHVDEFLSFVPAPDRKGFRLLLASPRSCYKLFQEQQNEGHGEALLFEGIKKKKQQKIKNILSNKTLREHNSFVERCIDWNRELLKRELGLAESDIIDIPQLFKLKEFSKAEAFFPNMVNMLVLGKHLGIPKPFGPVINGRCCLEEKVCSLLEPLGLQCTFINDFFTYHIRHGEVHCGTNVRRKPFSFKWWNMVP
row,IC50,Compound
1,51 nM,"COc1cc(C(=O)N2C[C@H]3CC[C@@H]2[C@@H]3N)cc2nc(-c3cc4cccnc4n3CC3CC3)n(CC3CN(C(=O)c4ccc(C#N)cc4)C3)c12 [Example 112, 4-[3-({5-[(1R,4R,7R)-7-amino-2-azabicyclo[2.2.1]heptane-2-carbonyl]-2-[1-(cyclopropylmethyl)-1H-pyrrolo[2,3-b]pyridin-2-yl]-7-methoxy-1H-1,3-benzodiazol-1-yl}methyl)azetidine-1-carbonyl]benzonitrile]"
2,18 nM,"COc1cc(C(=O)N2CC3CCC2C3N)cc2nc(-c3cc4cccnc4n3CC3CC3)n(CC3CCN(C(=O)c4ccc(C#N)cc4)C3)c12 [Example 201, 4-[(3S)-3-({5-[(1R,4R,7R)-7-amino-2-azabicyc1o[2.2.1]heptane-2-carbonyl]-2-[1-(cyclopropylmethyl)-1H-pyrrolo[2,3-b]pyridin-2-yl]-7-methoxy-1H-1,3-benzodiazol-1-yl}methyl)pyrrolidine-1-carbonyl]benzonitrile]"
3,30 nM,"N#Cc1ccc(C(=O)N2CC(Cn3c(-c4cc5ccccc5n4CC4CC4)nc4cc(C(=O)N5C[C@H]6CC[C@@H]5[C@@H]6N)ccc43)C2)cc1 [Example 165, 4-[3-({5-[(1R,4R,7R)-7-amino-2-azabicyclo[2.2.1]heptane-2-carbonyl]-2-[1-(cyclopropylmethyl)-1H-indol-2-yl]-1H-1,3-benzodiazol-1-yl}methyl)azetidine-1-carbonyl]benzonitrile]"
4,59 nM,"COc1cc(C(=O)N2C[C@H](N)C[C@@H](F)C2)cc2nc(-c3cc4cccnc4n3CC3CC3)n(Cc3cnn(-c4ncccn4)c3)c12 [Example 401, (3R,5R)-1-{2-[1-(cyclopropylmethyl)-1H-pyrrolo[2,3-b]pyridin-2-yl]-7-methoxy-1-{[1-(pyrimidin-2-yl)-1H-pyrazol-4-yl]methyl}-1H-1,3-benzodiazole-5-carbonyl}-5-fluoropiperidin-3-amine]"
5,289 nM,"COc1cc(C(=O)N2CC3CCC2[C@@H]3N)cc2nc(-c3cc4ccccc4n3CC3CC3)n(CCc3cn[nH]c3)c12 (stereo partly drawn) [Example 508, (7R)-2-{2-[1-(cyclopropylmethyl)-1H-indol-2-yl]-7-methoxy-1-[2-(1H-pyrazol-4-yl)ethyl]-1H-1,3-benzodiazole-5-carbonyl}-2-azabicyclo[2.2.1]heptan-7-amine]"
6,88 nM,"COc1cc(C(=O)N2C[C@H](N)C[C@@H](F)C2)cc2nc(-c3cc4ccccc4n3CC3CC3)n(CC3CN(c4cncc(C#N)c4)C3)c12 [Example 34, 5-[3-({5-[(3R,5R)-3-amino-5-fluoropiperidine-1-carbonyl]-2-[1-(cyclopropylmethyl)-1H-indol-2-yl]-7-methoxy-1H-1,3-benzodiazol-1-yl}methyl)azetidin-1-yl]pyridine-3-carbonitrile]"
7,98 nM,"COc1cc(C(=O)N2C[C@H]3CC[C@@H]2[C@@H]3N)cc2nc(-c3cc4cccnc4n3CC3CC3)n(CC3CN(C(=O)c4ccnc(F)c4)C3)c12 [Example 122, (1R,4R,7R)-2-{2-[1-(cyclopropylmethyl)-1H-pyrrolo[2,3-b]pyridin-2-yl]-1-{[1-(2-fluoropyridine-4-carbonyl)azetidin-3-yl]methyl}-7-methoxy-1H-1,3-benzodiazole-5-carbonyl}-2-azabicyclo[2.2.1]heptan-7-amine]"
8,21 nM,"COc1cc(C(=O)N2C[C@H](N)C[C@@H](F)C2)cc2nc(-c3cc4ccccc4n3CC3CC3)n(CC3CN(C(=O)c4cc(C#N)ccc4F)C3)c12 [Example 152, 3-[3-({5-[(3R,5R)-3-amino-5-fluoropiperidine-1-carbonyl]-2-[1-(cyclopropylmethyl)-1H-indol-2-yl]-7-methoxy-1H-1,3-benzodiazol-1-yl}methyl)azetidine-1-carbonyl]-4-fluorobenzonitrile]"
9,163 nM,"COc1cc(C(=O)N2C[C@H]3CC[C@@H]2[C@@H]3N)cc2nc(-c3cc4cccnc4n3CC3CC3)n(CC3CN(S(=O)(=O)C(F)(F)F)C3)c12 [Example 325, (1R,4R,7R)-2-{2-[1-(cyclopropylmethyl)-1H-pyrrolo[2,3-b]pyridin-2-yl]-7-methoxy-1-[(1-trifluoromethanesulfonylazetidin-3-yl)methyl]-1H-1,3-benzodiazole-5-carbonyl}-2-azabicyclo[2.2.1]heptan-7-amine]"
10,42 nM,"COc1cc(C(=O)N2CC3CCC2[C@@H]3N)cc2nc(-c3cc4ccccc4n3CC3CC3)n(Cc3cnn(-c4ccc(C(F)F)nc4)c3)c12 (stereo partly drawn) [Example 387, (7R)-2-{2-[1-(cyclopropylmethyl)-1H-indol-2-yl]-1-({1-[6-(difluoromethyl)pyridin-3-yl]-1H-pyrazol-4-yl}methyl)-7-methoxy-1H-1,3-benzodiazole-5-carbonyl}-2-azabicyclo[2.2.1]heptan-7-amine]"
11,479 nM,COc1cc(C(=O)N2CC3CCC2[C@@H]3N)cc2nc(-c3cc4cccnc4n3CC3CC3)n(C3CN(S(=O)(=O)c4ccc(Cl)nc4)C3)c12 (stereo partly shown) [Example 337]
12,358 nM,"COc1cc(C(=O)N2C[C@H]3CC[C@@H]2[C@@H]3N)cc2nc(-c3cc4cccnc4n3CC3CC3)n(CC3CN(C(C)=O)C3)c12 [Example 187, 1-[3-({5-[(1R,4R,7R)-7-amino-2-azabicyclo[2.2.1]heptane-2-carbonyl]-2-[1-(cyclopropylmethyl)-1H-pyrrolo[2,3-b]pyridin-2-yl]-7-methoxy-1H-1,3-benzodiazol-1-yl}methyl)azetidin-1-yl]ethan-1-one]"
13,16 nM,"COc1cc(C(=O)N2C[C@H]3CC[C@@H]2[C@@H]3N)cc2nc(-c3cc4ccccc4n3CC3CC3)n(C[C@H]3CCN(c4cncc(C#N)n4)C3)c12 [Example 196, 6-[(3S)-3-({5-[(1R,4R,7R)-7-amino-2-azabicyclo[2.2.1]heptane-2-carbonyl]-2-[1-(cyclopropylmethyl)-1H-indol-2-yl]-7-methoxy-1H-1,3-benzodiazol-1-yl}methyl)pyrrolidin-1-yl]pyrazine-2-carbonitrile]"
14,47 nM,"COc1cc(C(=O)N2CC3CCC2[C@@H]3N)cc2nc(-c3cc4ccccc4n3CC3CC3)n(CC3CN(C(=O)c4ccnc(C#N)c4)C3)c12 (stereo partly drawn) [Example 451, 4-[3-({5-[(7R)-7-amino-2-azabicyclo[2.2.1]heptane-2-carbonyl]-2-[1-(cyclopropylmethyl)-1H-indol-2-yl]-7-methoxy-1H-1,3-benzodiazol-1-yl}methyl)azetidine-1-carbonyl]pyridine-2-carbonitrile]"
15,55 nM,"COC(=O)Cn1cc(Cn2c(-c3cc4cccnc4n3CC3CC3)nc3cc(C(=O)N4CC5CCC4[C@@H]5N)cc(OC)c32)cn1 (stereo partly drawn) [Example 411, methyl 2-[4-({5-[(7R)-7-amino-2-azabicyclo[2.2.1]heptane-2-carbonyl]-2-[1-(cyclopropylmethyl)-1H-pyrrolo[2,3-b]pyridin-2-yl]-7-methoxy-1H-1,3-benzodiazol-1-yl}methyl)-1H-pyrazol-1-yl]acetate]"
16,198 nM,"COc1cc(C(=O)N2CC3CCC2[C@@H]3N)cc2nc(-c3cc4cccnc4n3CC3CC3)n(CC3CCN(C(=O)c4ccnc(C#N)c4)CC3)c12 (stereo partly drawn) [Example 200, 4-[4-({5-[(1R,4R,7R)-7-amino-2-azabicyclo[2.2.1]heptane-2-(cyclopropylmethyl)-1H-pyrrolo[2,3-b]pyridin-2-yl]-7-methoxy-1H-1,3-benzodiazol-1-yl}methyl)piperidine-1-carbonyl]pyridine-2-carbonitrile]"
17,97 nM,"COc1cc(C(=O)N2C[C@H](N)C[C@@H](F)C2)cc2nc(-c3cc4cccnc4n3CC3CC3)n(Cc3cnn(-c4cccn(C)c4=O)c3)c12 [Example 347, 3-[4-({5-[(3R,5R)-3-amino-5-fluoropiperidine-1-carbonyl]-2-[1-(cyclopropyimethyl)-1H-pyrrolo[2,3-b]pyridin-2-yl]-7-methoxy-1H-1,3-benzodiazol-1-yl}methyl)-1H-pyrazol-1-yl]-1-methyl-1,2-dihydropyridin-2-one]"
18,501 nM,"COc1cc(C(=O)N2C[C@H](N)C[C@@H](F)C2)cc2nc(-c3cc4cccnc4n3CC3CC3)n(Cc3cc(C)nn3C)c12 [Example 515, (3R,5R)-1-{2-[1-(cyclopropylmethyl)-1H-pyrrolo[2,3-b]pyridin-2-yl]-1-[(1,3-dimethyl-1H-pyrazol-5-yl)methyl]-7-methoxy-1H-1,3-benzodiazole-5-carbonyl}-5-fluoropiperidin-3-amine]"
19,45 nM,"COc1cc(C(=O)N2CC3CCC2[C@@H]3N)cc2nc(-c3cc4cccnc4n3CC3CC3)n(Cc3cnn(C)c3C)c12 (stereo partly drawn) [Example 486, (7R)-2-{2-[1-(cyclopropylmethyl)-1H-pyrrolo[2,3-b]pyridin-2-yl]-l-[(1,5-dimethyl-1H-pyrazol-4-yl)methyl]-7-methoxy-1H-1,3-benzodiazole-5-carbonyl}-2-azabicyclo[2.2.1]heptan-7-amine]"
20,1900 nM,"COc1cc(C(=O)N2CCC[C@@H](N)C2)cc2nc(-c3cc4cccnc4n3CC3CC3)n(C3CNC3)c12 [Example 310, (3R)-1-[1-(azetidin-3-yl)-2-[1-(cyclopropylmethvl)-1H-pyrrolo[2,3-b]pyridin-2-yl]-7-methoxy-1H-1,3-benzodiazole-5-carbonyl]piperidin-3-amine]"
21,498 nM,"COc1cc(C(=O)N2C[C@H]3CC[C@@H]2[C@@H]3N)cc2nc(-c3cc4cccnc4n3CC3CC3)n(CC3CN(S(C)(=O)=O)C3)c12 [Example 338, (1R,4R,7R)-2-{2-[1-(cyclopropylmethyl)-1H-pyrrolo[2,3-b]pyridin-2-yl]-1-[(1-methanesulfonylazetidin-3-yl)methyl]-7-methoxy-1H-1,3-benzodiazole-5-carbonyl}-2-azabicyclo[2.2.1]heptan-7-amine]"
22,310 nM,"COc1cc(C(=O)N2C[C@H]3CC[C@@H]2[C@@H]3N)cc2nc(-c3cc4cccnc4n3C)n(C[C@@H]3CCN(c4ncccn4)C3)c12 [Example 232, (1R,4R,7R)-2-(7-methoxy-2-{1-methyl-1H-pyrrolo[2,3-b]pyridin-2-yl}-1-{[(3S)-1-(pyrimidin-2-yl)pyrrolidin-3-yl]methyl}-1H-1,3-benzodiazole-5-carbonyl)-2-azabicyclo[2.2.1]heptan-7-amine]"
